Assay results published in ChEMBL document CHEMBL1201862, “PubChem BioAssay data set” (2004).
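Each compound was tested at five concentrations against cells in 96-well plates for 48 hours. GI50 marks 50% less growth.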 The source made the active and inactive calls. Cut-off read from the data, not from the text of the source: active = GI50 up to about 1.1 µM and inactive = higher.

How the values were obtained:
Experiment in all cases: inhibition of tumour cell growth, NCI panel, 48 h
[1] = tested on: SK-OV-3
[2] = tested on: UO-31
[3] = tested on: RPMI-8226
[4] = tested on: NCI-H460
[5] = tested on: COLO 205
[6] = tested on: HT-29
[7] = tested on: SN12C
[8] = tested on: UACC-62
[9] = tested on: A549
[10] = tested on: HOP-92
[11] = tested on: SNB-78
[12] = tested on: OVCAR-5
[13] = tested on: RXF 393
[14] = tested on: MOLT-4
[15] = tested on: HOP-62
[16] = tested on: IGROV-1
[17] = tested on: SK-MEL-2
[18] = tested on: NCI-H23
[19] = tested on: HOP-18
[20] = tested on: HCC 2998
[21] = tested on: OVCAR-4
[22] = tested on: DMS-273
[23] = tested on: A498
[24] = tested on: CCRF-CEM
[25] = tested on: SNB-19
[26] = tested on: SK-MEL-5
[27] = tested on: Malme-3M
[28] = tested on: OVCAR-8
[29] = tested on: M19-MEL
[30] = tested on: OVCAR-3
[31] = tested on: NCI-H522
[32] = tested on: SF-539
[33] = tested on: EKVX
[34] = tested on: SF-295
[35] = tested on: DLD-1
[36] = tested on: K562
[37] = tested on: CAKI-1
[38] = tested on: MCF7
[39] = tested on: KM-20L2
[40] = tested on: SK-MEL-28
[41] = tested on: DMS-114
[42] = tested on: HCT-116
[43] = tested on: SW-620
[44] = tested on: NCI/ADR-RES
[45] = tested on: KM12
[46] = tested on: HCT-15
[47] = tested on: SF-268
[48] = tested on: SNB-75
[49] = tested on: NCI-H226
[50] = tested on: HL-60
[51] = tested on: U-251
[52] = tested on: UACC-257
[53] = tested on: LOX IMVI
[54] = tested on: ACHN
[55] = tested on: LXFL 529
[56] = tested on: M14
[57] = tested on: SR
[58] = tested on: 786-0
[59] = tested on: TK-10

Which results are given for `CN1CCC23c4ccccc4NC1C21CCN(C)C3Nc2ccccc21`?
GI50 [1]: > 375 µM (inactive); GI50 [2]: > 301 µM (inactive); GI50 [3]: 157 µM (inactive); GI50 [4]: > 375 µM (inactive); GI50 [5]: > 338 µM (inactive); GI50 [6]: > 375 µM (inactive); GI50 [7]: > 375 µM (inactive); GI50 [8]: > 375 µM (inactive); GI50 [9]: > 375 µM (inactive); GI50 [10]: 94.6 µM (inactive); GI50 [11]: 151 µM (inactive); GI50 [12]: > 375 µM (inactive); GI50 [13]: 152 µM (inactive); GI50 [14]: 151 µM (inactive); GI50 [15]: > 375 µM (inactive); GI50 [16]: > 375 µM (inactive); GI50 [17]: > 375 µM (inactive); GI50 [18]: > 375 µM (inactive); GI50 [19]: 343 µM (inactive); GI50 [20]: > 375 µM (inactive); GI50 [21]: > 375 µM (inactive); GI50 [22]: > 375 µM (inactive); GI50 [23]: > 218 µM (inactive); GI50 [24]: 137 µM (inactive); GI50 [25]: > 375 µM (inactive); GI50 [26]: > 174 µM (inactive); GI50 [27]: 249 µM (inactive); GI50 [28]: 59.4 µM (inactive); GI50 [29]: > 375 µM (inactive); GI50 [30]: > 375 µM (inactive); GI50 [31]: > 375 µM (inactive); GI50 [32]: > 355 µM (inactive); GI50 [33]: > 294 µM (inactive); GI50 [34]: > 375 µM (inactive); GI50 [35]: > 375 µM (inactive); GI50 [36]: 130 µM (inactive); GI50 [37]: 75.5 µM (inactive); GI50 [38]: > 375 µM (inactive); GI50 [39]: > 239 µM (inactive); GI50 [40]: > 375 µM (inactive); GI50 [41]: > 375 µM (inactive); GI50 [42]: 356 µM (inactive); GI50 [43]: > 375 µM (inactive); GI50 [44]: > 375 µM (inactive); GI50 [45]: 268 µM (inactive); GI50 [46]: > 375 µM; GI50 [47]: 102 µM (inactive); GI50 [48]: > 303 µM (inactive); GI50 [49]: 206 µM (inactive); GI50 [50]: 59.7 µM (inactive); GI50 [51]: > 375 µM (inactive); GI50 [52]: 93.3 µM (inactive); GI50 [53]: > 375 µM (inactive)

How did the GI50 [1] turn out when `Nc1nc[n+](Cc2ccccc2)c2ncn(Cc3ccccc3)c12` was run?
Its GI50 is > 100 µM (inactive).

What about the GI50 [2] of the same molecule?
Its GI50 is 39.3 µM (inactive).

And the GI50 [4]?
Its GI50 is > 100 µM (inactive).

What about the GI50 [5] of the same molecule?
The GI50 was 26.7 µM (inactive).

What about the GI50 [6] of the same molecule?
Its GI50 is 31.6 µM (inactive).

And the GI50 [7]?
The GI50 was > 100 µM (inactive).

And the GI50 [54]?
The GI50 was > 100 µM (inactive).

What about the GI50 [8] of the same molecule?
The GI50 was 32.4 µM (inactive).

And the GI50 [9]?
The GI50 was > 100 µM (inactive).

And the GI50 [10]?
The GI50 was 19.2 µM (inactive).

What about the GI50 [11] of the same molecule?
The GI50 was 75 µM (inactive).

What about the GI50 [12] of the same molecule?
The GI50 was > 100 µM (inactive).

What about the GI50 [55] of the same molecule?
Its GI50 is > 100 µM (inactive).

And the GI50 [13]?
Its GI50 is 20.2 µM (inactive).

And the GI50 [15]?
The GI50 was 32.6 µM (inactive).

And the GI50 [16]?
The GI50 was > 100 µM (inactive).

And the GI50 [17]?
Its GI50 is > 100 µM (inactive).

What about the GI50 [18] of the same molecule?
The GI50 was 97.7 µM (inactive).

And the GI50 [56]?
Its GI50 is 23.7 µM (inactive).

What about the GI50 [19] of the same molecule?
Its GI50 is > 100 µM (inactive).

What about the GI50 [20] of the same molecule?
The GI50 was 15.5 µM (inactive).

What about the GI50 [21] of the same molecule?
The GI50 was > 100 µM (inactive).

And the GI50 [22]?
Its GI50 is > 100 µM (inactive).

And the GI50 [23]?
The GI50 was 55.1 µM (inactive).

And the GI50 [24]?
Its GI50 is > 100 µM (inactive).

And the GI50 [25]?
The GI50 was > 100 µM (inactive).

What about the GI50 [26] of the same molecule?
Its GI50 is 97.5 µM (inactive).

And the GI50 [27]?
The GI50 was 84.3 µM (inactive).

What about the GI50 [28] of the same molecule?
Its GI50 is > 100 µM (inactive).

What about the GI50 [57] of the same molecule?
Its GI50 is 35.3 µM (inactive).

What about the GI50 [29] of the same molecule?
The GI50 was > 100 µM (inactive).

What about the GI50 [30] of the same molecule?
Its GI50 is 38.6 µM (inactive).

And the GI50 [31]?
Its GI50 is 81.3 µM (inactive).

What about the GI50 [32] of the same molecule?
Its GI50 is > 100 µM (inactive).

What about the GI50 [33] of the same molecule?
Its GI50 is > 100 µM (inactive).

What about the GI50 [34] of the same molecule?
Its GI50 is 63.8 µM (inactive).

And the GI50 [35]?
Its GI50 is 80.2 µM (inactive).

What about the GI50 [36] of the same molecule?
The GI50 was 37.7 µM (inactive).

What about the GI50 [37] of the same molecule?
The GI50 was 54.3 µM (inactive).

And the GI50 [39]?
The GI50 was 55.2 µM (inactive).

And the GI50 [40]?
The GI50 was > 100 µM (inactive).

And the GI50 [42]?
The GI50 was 37.9 µM (inactive).

And the GI50 [43]?
The GI50 was > 100 µM (inactive).

What about the GI50 [45] of the same molecule?
Its GI50 is 68.9 µM (inactive).

And the GI50 [46]?
The GI50 was greater than 100 µM.

What about the GI50 [47] of the same molecule?
Its GI50 is > 100 µM (inactive).

What about the GI50 [48] of the same molecule?
The GI50 was 34.9 µM (inactive).

And the GI50 [49]?
Its GI50 is > 100 µM (inactive).

And the GI50 [50]?
The GI50 was 32.3 µM (inactive).

What about the GI50 [58] of the same molecule?
Its GI50 is > 100 µM (inactive).

And the GI50 [51]?
The GI50 was 45.7 µM (inactive).

And the GI50 [52]?
The GI50 was 63.8 µM (inactive).

What about the GI50 [53] of the same molecule?
The GI50 was > 100 µM (inactive).

What about the GI50 [59] of the same molecule?
The GI50 was 28.4 µM (inactive).
